From paper PMC8717895 (Neuro-oncology Advances, 2021)
Like-named read-outs stand apart in the source and are kept apart here. Marks after values point to notes of the source that are not given here.

Format: in vivo, human
Conditions: for ALT increased / AST increased / Abdominal pain / Alkaline phosphatase increased / Anemia / Anorexia / Diarrhea / Dyspepsia / GGT increased / Headache / Hematuria / Hypermagnesemia / Hypernatremia / Hypoalbuminemia / Hypocalcemia / Hypokalemia / Hypophosphatemia / Lipase increased / Lymphocyte count decreased / Nausea / Neutrophil count decreased / Platelet count decreased / Proteinuria / Serum amylase increased / Stomach pain / Vomiting / White blood cell decreased: stratum A
[1] = Level 1 (100 mg/m^2), Grade 1/2
[2] = Level 1 (100 mg/m^2), Grade 3/4
[3] = Level 2 (130 mg/m^2), Grade 1/2
[4] = Level 2 (130 mg/m^2), Grade 3/4
[5] = Level 3 (170 mg/m^2), Grade 1/2

For `CC1(COc2ccc3c(c2)ncn3-c2ccc3cccc(N4CCC(N)CC4)c3n2)COC1` [crenolanib], the “Recommended pediatric phase II dosage” value (once daily with food, with or without RT) was 170 mg/m^2, the ALT increased [1] was 10 (83%) and the AST increased [1] was 6 (50%). For the same compound, the Abdominal pain [1] was 2 (17%), the Alkaline phosphatase increased [1] was 1 (8%) and the Anemia [1] was 3 (25%). For the same compound, the Anorexia [1] was 1 (8%), the Diarrhea [1] was 2 (17%) and the Dyspepsia [1] was 2 (17%). For the same compound, the GGT increased [1] was 5 (42%), the Headache [1] was 0 and the Hematuria [1] was 3 (25%). For the same compound, the Hypermagnesemia [1] was 3 (25%), the Hypernatremia [1] was 1 (8%) and the Hypoalbuminemia [1] was 7 (58%). The Hypocalcemia [1] was 1 (8%), the Hypokalemia [1] was 5 (42%) and the Hypophosphatemia [1] was 7 (58%). For the same compound, the Lipase increased [1] was 5 (42%), the Lymphocyte count decreased [1] was 2 (17%) and the Nausea [1] was 8 (67%). For the same compound, the Neutrophil count decreased [1] was 0, the Platelet count decreased [1] was 4 (33%) and the Proteinuria [1] was 4 (33%). For the same compound, the Serum amylase increased [1] was 4 (33%), the Stomach pain [1] was 1 (8%) and the Vomiting [1] was 8 (67%). The “White blood cell decreased” value [1] was 4 (33%), the ALT increased [2] was 1 (8%) and the AST increased [2] was 0. For the same compound, the Abdominal pain [2] was 0, the Alkaline phosphatase increased [2] was 0 and the Anemia [2] was 1 (8%). For the same compound, the Anorexia [2] was 0, the Diarrhea [2] was 0 and the Dyspepsia [2] was 0. The GGT increased [2] was 3 (25%), the Headache [2] was 1 (8%) and the Hematuria [2] was 0. It also gave a Hypermagnesemia [2] of 0, a Hypernatremia [2] of 0 and a Hypoalbuminemia [2] of 0. The Hypocalcemia [2] was 0, the Hypokalemia [2] was 1 (8%) and the Hypophosphatemia [2] was 0. For the same compound, the Lipase increased [2] was 2 (17%), the Lymphocyte count decreased [2] was 8 (67%) and the Nausea [2] was 0. The Neutrophil count decreased [2] was 5 (42%)^a, the Platelet count decreased [2] was 1 (8%) and the Proteinuria [2] was 1 (8%). The Serum amylase increased [2] was 2 (17%), the Stomach pain [2] was 0 and the Vomiting [2] was 1 (8%). For the same compound, the “White blood cell decreased” value [2] was 5 (42%), the ALT increased [3] was 2 (33%) and the AST increased [3] was 4 (67%). For the same compound, the Abdominal pain [3] was 3 (50%), the Alkaline phosphatase increased [3] was 3 (50%) and the Anemia [3] was 3 (50%). For the same compound, the Anorexia [3] was 1 (17%), the Diarrhea [3] was 3 (50%) and the Dyspepsia [3] was 0. For the same compound, the GGT increased [3] was 5 (83%), the Headache [3] was 1 (17%) and the Hematuria [3] was 2 (33%). For the same compound, the Hypermagnesemia [3] was 1 (17%), the Hypernatremia [3] was 1 (17%) and the Hypoalbuminemia [3] was 2 (33%). The Hypocalcemia [3] was 2 (33%), the Hypokalemia [3] was 1 (17%) and the Hypophosphatemia [3] was 3 (50%). For the same compound, the Lipase increased [3] was 2 (33%), the Lymphocyte count decreased [3] was 0 and the Nausea [3] was 5 (83%). For the same compound, the Neutrophil count decreased [3] was 1 (17%), the Platelet count decreased [3] was 3 (50%) and the Proteinuria [3] was 5 (83%). The Serum amylase increased [3] was 0, the Stomach pain [3] was 2 (33%) and the Vomiting [3] was 6 (100%). For the same compound, the “White blood cell decreased” value [3] was 3 (50%), the ALT increased [4] was 2 (33%) and the AST increased [4] was 0. For the same compound, the Abdominal pain [4] was 0, the Alkaline phosphatase increased [4] was 0 and the Anemia [4] was 0. For the same compound, the Anorexia [4] was 0, the Diarrhea [4] was 0 and the Dyspepsia [4] was 0. For the same compound, the GGT increased [4] was 0, the Headache [4] was 1 (17%) and the Hematuria [4] was 0. For the same compound, the Hypermagnesemia [4] was 0, the Hypernatremia [4] was 0 and the Hypoalbuminemia [4] was 0. For the same compound, the Hypocalcemia [4] was 0, the Hypokalemia [4] was 1 (17%) and the Hypophosphatemia [4] was 0. The Lipase increased [4] was 0, the Lymphocyte count decreased [4] was 6 (100%) and the Nausea [4] was 0. For the same compound, the Neutrophil count decreased [4] was 2 (33%), the Platelet count decreased [4] was 0 and the Proteinuria [4] was 1 (17%). For the same compound, the Serum amylase increased [4] was 1 (17%), the Stomach pain [4] was 0 and the Vomiting [4] was 0. The “White blood cell decreased” value [4] was 2 (33%), the ALT increased [5] was 4 (67%) and the AST increased [5] was 5 (83%).
